Data on nine compounds can be found in patent publication EP0665834B1, “QUINOLONE AND ACRIDINONE DERIVATIVES FOR THE TREATMENT OF URINARY INCONTINENCE” (AstraZeneca AB, priority 1992, dated 1994).

One data set relates to cardiovascular system. Particulars: Vitolinya et al, 1981; cited from earlier work.
The test system of another data set is intestinal smooth muscle. Particulars: Vitolinya et al, 1981; cited from earlier work.
In the next data set the test system is bladder. The data set can be described thus: in vivo oral test in catheterized rats: bladder contraction interval, blood pressure, heart rate. Details: species or system Male Wistar rats. Particulars: dosed orally at 3 mg/kg body weight. The method, then: The compound described in Example 1 is active and selective in this test when dosed orally at 3 mg/kg body weight.
Male Wistar rats (400 - 500 g) were anesthetized with 50 mg/kg Nembutal, i.p. For each rat, the abdominal region and the front and back of the neck were shaved and povidone-iodine was applied to the skin. For carotid catheterization, the left carotid artery was exposed via a small ventral cervical incision. The exposed area was flushed with a 2% lidocaine HCl solution to relax the vessel. The catheter, filled with 0.9% saline, was introduced approximately 2.4 cm into the artery so that its tip resided in the aortic arch. The distal end of the catheter was exteriorized at the nape of the neck, filled with heparin (1000 units/ml) and heat sealed. […]
The rats were weighed, orally sham-dosed (dosing needle introduced, but no fluid expelled), and transvesical saline infusion (.18 ml/min) was begun and continued throughout the experiment. Variations in blood pressure, heart rate, intravesical pressure and urine output were recorded on either a Grass Polygraph or a Gould TA4000 recording system. […] At this point, a basal level of each experimental parameter was recorded and the rats were administered by oral gavage the appropriate dose of compound (in a 75% PEG 400 - saline vehicle) in concentrations such that the volume was 1 ml/kg body weight. […]

Data set [1] relates to guinea pig detrusor strips. The data set can be described thus: in vitro relaxation of guinea pig bladder detrusor strips contracted with 15 mM KCl (first test). The class given is cell-based, albino Hartley guinea pigs. The following applies: for IC50: Cavia porcellus, 15 mM KCl; for potency: in vitro, in words only. The text has this: The actions of compounds of formula I as smooth muscle relaxants useful as therapeutic agents for the treatment of urinary incontinence through their action to open potassium channels and hyperpolarize the membrane potential in the bladder detrusor smooth muscle can be shown using suitably designed in vitro tests, such as the one described following. […] "IC50" is a well understood term and means the concentration of test compound which causes a 50% decrease in the in vitro contraction of the bladder tissue described in the following test.
Hale albino Hartley guinea pigs (450-500g) are sacrificed by carbon dioxide induced asphyxiation and quickly exsanguinated. The lower abdominal cavity is opened and the urinary bladder isolated. The bladder is cleaned of surrounding connective and adipose tissue, and the portion above the ureteral orifices is removed and washed in Krebs-Henseleit buffer solution of the following composition (in mH): NaCl 118.0, KCl 4.7, […] 1.2, KH2PO4 1.2, CaCl2 2.5, NaHCO3 25.0 and d-glucose 11.1. The solution is warmed to 37°C and gassed with 95% O2 and 5% CO2. With vigorous bubbling, the solution should have a pH value close to 7.4.
The dome of the washed bladder is cut off and discarded; the remaining bladder is placed on a gauze in a Petri dish containing the buffer solution. A mid-ventral longitudinal cut is made with scissors to open the bladder. The strips cut from the dome and the base edge are discarded. The remaining detrusor mid-section is cut into two horizontal strips with an approximate width of 2.0 mm. These two strips are further bisected at the mid-dorsal section, creating four strip of similar dimensions. Each strip thus contains both dorsal and ventral portions of the bladder.
The two ends of each individual strip are tied to a glass support rod and a force-displacement transducer (Grass model FR03), respectively, with 4-0 black braided silk suture.
The transducers are connected to a polygraph (Grass model 7E), which is calibrated at 5 mV/cm and the calibration checked for linearity with weights of 5 and 0.5 grams. The analog electrical output signals from the polygraph are digitized by a Modular Instrument Hicro 5000 signal processing system using Biowindow Data Acquisition Software, which is run under the Hicrosoft OS/2 operating system with an IBM-compatible PC.
The detrusor strips on the glass rod are secured in 20 ml tissue baths and allowed to equilibrate under a preload tension of 2 grams. […]
When the tissue relaxes to a steady state after the final washing, 15 mH KCl is again applied. […] The effect of the compound at each dose is expressed as % of the maximum inhibitory response, which is further normalized with respect to the corresponding effect of the compound vehicle control. […]

A short description of data set [2]: chemical stability (no method given). The class given is physicochemical. Particulars: in words; compared with corresponding compounds wherein R^2 is methyl.
For data set [3], the system named is guinea pig detrusor strips. The data set can be described thus: second in vitro test: guinea pig detrusor strips contracted with 80 mM KCl. Particulars: for potency in the second test (80 mM KCl) compared with the first test (15 mM KCl): guinea pig detrusor strips. The class given is cell-based. As to the method: This second in vitro test is similar to the one described above with regard to tissue preparation and data acquisition. However, the following exceptions are noted. In this second test, the contraction of the detrusor strips during priming and after the equilibration period is achieved with 80 mM instead of 15 mM KCl (total concentration in the bath).
Typical calcium channel blockers like nifedipine, nimodipine, isradipine, and verapamil are able to relax and reduce the myogenic activity of guinea pig detrusor strips in both tests by virtue of their blocking action on calcium channels.

In another data set the test system is urinary incontinence. The following applies: preliminary clinical trial; Nurse et al, British Journal of Urology (1991); cited from earlier work.

For `CC1=C(C#N)C(c2ccccc2)C2=C(CC(C)(C)CC2=O)N1` (centres unmarked) [3-Cyano-4-phenyl-2,7,7-trimethyl-4,6,7,8-tetrahydro-5(1H)-quinolone], the hypotensive properties result in the data set with cardiovascular system was “hypotensive properties”. Also, the “blocking of spasmogenic effect of acetylcholine and barium chloride” value in the data set with intestinal smooth muscle is recorded as “capable of blocking the spasmogenic effect”. `CC1=CC(c2cccc([N+](=O)[O-])c2)C2=C(CCCC2=O)N1` (centres unmarked) [Example 1, 2-Methyl-4-(3-nitrophenyl)-4,6,7,8-tetrahydro-5(1H)-quinolone]: in the data set on bladder, the result was active. A word on the IC50: it is the concentration at which inhibition is half-maximal. Higher therefore signals weaker potency. In data set [1] (concentration causing 50% decrease in in vitro contraction of bladder tissue), `CC1=CC(c2ccc(C(F)(F)F)cc2)C2=C(CCCC2=O)N1` (centres unmarked) [Example 9, 2-Methyl-4-(4-trifluoromethylphenyl)-4,6,7,8-tetrahydro-5(1H)-quinolone] showed an IC50 of 8.11 µM. Consider `O=C1CCCC2=C1C(c1cccc([N+](=O)[O-])c1)C=C(C(F)(F)F)N2` (centres unmarked) [Example 15, 2-Trifluoromethyl-4-(3-nitrophenyl)-4,6,7,8-tetrahydro-5(1H)quinolone], for which the chemical stability result in data set [2] was “superior”. The potency result in data set [1] was “surprisingly good potency in vitro”. Consider `N#Cc1cccc(C2C=C(C(F)(F)F)NC3=C2C(=O)CCC3)c1` (centres unmarked) [Example 39, 2-Trifluoromethyl-4-(3-cyanophenyl)-4,6,7,8-tetrahydro-5(1H)-quinolone], for which, in data set [2], the chemical stability result is reported as “superior”. Also, in data set [1], the potency entry was “surprisingly good potency in vitro”. For `CC1(C)Oc2ccc(C#N)cc2C(N2CCCC2=O)C1O` (centres unmarked) [cromakalim], the relaxant activity entry in data set [3] (80 mM KCl, at concentrations as high as 30 µM) was “insignificant relaxant activity”. Moreover, the IC50 in data set [1] (relaxant activity in the first test) was 0.6 to 0.9 µM. Further, the “efficacy in treatment of urinary incontinence” value in the data set with urinary incontinence is reported as “effective”. For `COC(=O)C1=C(C)NC(C)=C(C(=O)OC(C)C)C1c1cccc2nonc12` (centres unmarked) [isradipine], in data set [3], the “potency in the second test (80 mM KCl) compared with the first test (15 mM KCl)” value is “more potent in the second test”. For the compound `COc1ccc(Cc2nccc3cc(OC)c(OC)cc23)cc1OC` [papaverine], in data set [3] (80 mM KCl, 300 µM), the “effect on sustained tension after high KCl stimulation” value was “totally abolished”. Consider `COc1ccc(CCN(C)CCCC(C#N)(c2ccc(OC)c(OC)c2)C(C)C)cc1OC` (centres unmarked) [verapamil], for which the “potency in the second test (80 mM KCl) compared with the first test (15 mM KCl)” value in data set [3] was “more potent in the second test”.
